Where a name gives a salt, the structure may show the parent alone.
target: 5-HT1A receptor; test: In vitro receptor binding, 5-HT1A
Description: In vitro IC50 test values for binding to the 5-HT1A receptor were determined for representative compounds of Formula I by the method of S. J. Peroutka, Brain Research 344, 167 (1985); with only minor modifications. Test IC50 values lower than 100 nM are considered to reflect activity at the 5-HT1A receptor.

Row | IC50 | SMILES
1 | 2.2 nM | COc1cccc(CC2CCN([C@H]3CC[C@](O)(c4ccc5c(c4)OCCO5)CC3)CC2)c1 [Example 41, Z-1-(1,4-Benzodioxan-6-yl)-4-[4-[(3-methoxyphenyl)methyl]-1-piperidinyl]cyclohexanol]
2 | 5.3 nM | O[C@]1(c2ccc3c(c2)OCCO3)CC[C@@H](N2CCN(Cc3ccccc3)CC2)CC1 [Example 20-E, E-1-(1,4-Benzodioxan-6-yl)-4-[4-(phenylmethyl)-1-piperazinyl]cyclohexanol]
3 | 2.6 nM | O[C@]1(c2ccc3c(c2)OCO3)CC[C@H](N2CCN(Cc3cc(F)ccc3F)CC2)CC1 [Example 29, Z-1-(1,3-Benzodioxol-5-yl)-4-[4-[(2,5-difluorophenyl)methyl]-1-piperazinyl]-cyclohexanol]
4 | 17.3 nM | O[C@]1(c2ccc3c(c2)OCO3)CC[C@H](N2CCN(Cc3cccc(F)c3F)CC2)CC1 [Example 30, Z-1-(1,3-Benzodioxol-5-yl)-4-[4,[(2,3-difluorophenyl)methyl]-1-piperazinyl]-cyclohexanol]
5 | 31.9 nM | COc1cccc(CC2CCN([C@H]3CC[C@](O)(c4ccc(F)cc4)CC3)CC2)c1 [Example 48]
6 | 3.45 nM | COc1ccc(F)c(CN2CCN([C@H]3CC[C@](O)(c4ccc(F)cc4)CC3)CC2)c1 [Example 40, Z-1-(4-Fluorophenyl)-4,-[4,-[(2-fluoro-5-methoxyphenyl)methyl]-1piperazinyl]cyclohexanol]
7 | 10.6 nM | COc1cccc(CN2CCN([C@H]3CC[C@](O)(c4ccc(F)cc4)CC3)CC2)c1 [Example 34, Z-1-(4-Fluorophenyl)-4-[4-[(3-methoxyphenyl)methyl]-1-piperazinyl]cyclohexanol]
8 | 4.9 nM | O[C@]1(c2ccc3c(c2)OCO3)CC[C@H](N2CCC(Cc3cc(F)ccc3F)CC2)CC1 [Example 43, Z-1-(1,3-Benzodioxol-5-yl)-4-[4-[(2,5-difluorophenyl)methyl]-1-piperidinyl]cyclohexanol]
9 | 28.6 nM | O[C@]1(c2ccc3c(c2)OCO3)CC[C@H](N2CCN(C(c3ccccc3)c3ccccc3)CC2)CC1 [Example 51, Z-1-(1,3-Benzodioxol-5-yl)-4-[4-(diphenylmethyl)-1-piperazinyl]cyclohexanol]
10 | 1.2 nM | O[C@]1(c2ccc3c(c2)OCO3)CC[C@H](N2CCN(Cc3ccccc3I)CC2)CC1 [Example 32, Z-1-(1,3-Benzodioxol-5-yl)-4-[4-[(2-iodophenyl)methyl]-1-piperazinyl]cyclohexanol]
11 | 16.2 nM | CO[C@]1(c2ccc3c(c2)OCO3)CC[C@H](N2CCC(Cc3cc(F)ccc3F)CC2)CC1 [Example 46, Z-1-[4-(1,3-Benzodioxol-5-yl)-4-methoxy-1-cyclohexyl]-4-[(2,5,-difluorophenyl)-methyl]piperidine fumarate]
12 | 0.6 nM | O[C@]1(c2ccc3c(c2)OCO3)CC[C@H](N2CCN(Cc3cc(Cl)ccc3Cl)CC2)CC1 [Example 28, Z-1-(1,3-Benzodioxol-5-yl)-4-[4-[(2,5-dichlorophenyl)methyl]-1-piperazinyl]-cyclohexanol]
13 | 19.1 nM | O[C@]1(c2ccc3c(c2)OCO3)CC[C@H](N2CCN(Cc3cccs3)CC2)CC1 [Example 26, Z-1-(1,3-Benzodioxol-5-yl)-4-[4-(2-thienylmethyl)-1-piperazinyl]cyclohexano]
14 | 59.8 nM | O[C@]1(c2ccc(F)cc2)CC[C@H](N2CCC(Cc3ccccc3)CC2)CC1 [Example 47, Z-1-(4-Fluorophenyl)-4-[4-(phenylmethyl)-1-piperidinyl]cyclohexanol]
15 | 35.6 nM | COc1cccc(CN2CCN([C@H]3CC[C@](O)(c4ccc(C(F)(F)F)cc4)CC3)CC2)c1 [Example 38, Z-1-[(4-Trifluoromethyl)phenyl]-4-[4-[(3-methoxyphenyl)methyl]-1-piperazinyl]-cyclohexanol]
16 | 0.75 nM | COc1ccc(F)c(CN2CCN([C@H]3CC[C@](O)(c4ccc5c(c4)OCO5)CC3)CC2)c1 [Example 39, Z-1-(1,3-Benzodioxol-5-yl)-4-[4-[(2-fluoro-5-methoxyphenyl)methyl]-1-piperazinyl]cyclohexanol]
17 | 4.4 nM | COc1cccc(CC2CCN([C@H]3CC[C@](O)(c4ccc5c(c4)OCO5)CC3)CC2)c1 [Example 42, Z-1-(1,3-Benzodioxol-5-yl)-4-[4-[(3-methoxyphenyl)methyl]-1-piperidinyl]cyclohexanol]
18 | 5.9 nM | O[C@]1(c2ccc(F)cc2)CC[C@H](N2CCN(Cc3ccccc3Cl)CC2)CC1 [Example 35, Z-1-(4-Fluorophenyl)-4-[4-[(2-chlorophenyl)methyl]-1-piperazinyl]cyclohexanol]
19 | 57.6 nM | O[C@]1(c2ccc(F)cc2)CC[C@H](N2CCC(Cc3cc(F)ccc3F)CC2)CC1 [Example 49, Z-1-(4-Fluorophenyl)-4-[4-[(2,5-difluorophenyl)methyl]-1-piperidinyl]cyclohexanol]
20 | 21.1 nM | O[C@]1(c2ccc3c(c2)OCO3)CC[C@H](N2CCN(Cc3cc(F)cc(F)c3)CC2)CC1 [Example 31, Z-1-(1,3-Benzodioxol-5-yl)-4-[4-[(3,5-difluorophenyl)methyl]-1-piperazinyl]-cyclohexanol]
21 | 18.1 nM | CC(c1ccccc1)N1CCN([C@H]2CC[C@](O)(c3ccc4c(c3)OCO4)CC2)CC1 (some centres unmarked) [Example 52, Z-1-(1,3-Benzodioxol-5-yl)-4-[4-(1-phenylethyl)-1-piperazinyl]cyclohexanol]
22 | 3.4 nM | COc1cccc(CC2CCN([C@H]3CC[C@](OC)(c4ccc5c(c4)OCCO5)CC3)CC2)c1 [Example 45, Z-1-[4-(1,4-Benzodioxan-6-yl)-4-methoxy-1-cyclohexyl]-4-[3-(methoxyphenyl)methyl]-piperidine fumarate]
23 | 25.8 nM | O[C@]1(c2ccc(C(F)(F)F)cc2)CC[C@H](N2CCN(Cc3ccccc3Cl)CC2)CC1 [Example 37, Z-1-[(4-Trifluoromethyl)phenyl]-4-[4-[(2-chlorophenyl)methyl]-1-piperazinyl]-cyclohexanol]
24 | 1.85 nM | O[C@]1(c2ccc3c(c2)OCO3)CC[C@H](N2CCN(Cc3ccccc3Cl)CC2)CC1 [Example 27, Z-1-(1,3-Benzodioxol-5-yl)-4-[4-[(2-chlorophenyl)methyl]-1-piperazinyl]cyclohexanol]
25 | 34.9 nM | O[C@]1(c2ccc3c(c2)OCO3)CC[C@H](N2CCN(Cc3cccc4c3OCO4)CC2)CC1 [Example 33, Z-1-(1,3-Benzodioxol-5-yl)-4-[4-[(1,3-benzodioxo-4-yl)methyl]-1-piperazinyl]-cyclohexanol]

Row | SMILES | IC50
26 | O[C@]1(c2ccc3c(c2)OCO3)CC[C@H](N2CCN(Cc3ccccc3F)CC2)CC1 [Example 23, Z-1-(1,3-Benzodioxol-5-yl)-4-[4,[(2-fluorophenyl)methyl]-1-piperazinyl]cyclohexanol] | 10.1 nM
27 | O[C@]1(c2ccc3c(c2)OCO3)CC[C@H](N2CCN(Cc3cccc(F)c3)CC2)CC1 [Example 22, Z-1-(1,3-Benzodioxol-5-yl)-4-[4-[(3-fluorophenyl)methyl]-1-piperazinyl]cyclohexanol] | 13.4 nM
28 | O[C@]1(c2ccc3c(c2)OCO3)CC[C@H](N2CCN(Cc3ccccc3Br)CC2)CC1 [Example 50, Z-1-(1,3-Benzodioxol-5-yl)-4-[4-[(2-bromophenyl)methyl]-1-piperazinyl]cyclohexanol] | 1.2 nM

target: T1, D2 receptor (Bos taurus, UniProt P20288); test: In vitro receptor binding, D2
T1 construct: from tissue
T1 sequence (P20288 whole entry): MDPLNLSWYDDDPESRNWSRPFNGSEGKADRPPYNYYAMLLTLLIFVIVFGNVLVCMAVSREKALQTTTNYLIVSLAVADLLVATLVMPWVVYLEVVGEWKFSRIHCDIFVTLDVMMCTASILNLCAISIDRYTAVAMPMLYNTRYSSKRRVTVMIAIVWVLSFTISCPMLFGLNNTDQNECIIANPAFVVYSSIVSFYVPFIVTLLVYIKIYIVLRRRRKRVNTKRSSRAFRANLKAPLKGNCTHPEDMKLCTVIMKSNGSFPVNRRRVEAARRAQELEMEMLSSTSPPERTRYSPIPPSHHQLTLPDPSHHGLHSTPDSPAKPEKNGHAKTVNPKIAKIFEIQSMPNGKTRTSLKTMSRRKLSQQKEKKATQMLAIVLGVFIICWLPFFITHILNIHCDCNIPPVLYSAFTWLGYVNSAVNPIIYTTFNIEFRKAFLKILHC
Description: In vitro IC50 test values for binding to the D2 receptor were determined for representative compounds of Formula I by the method of Burt, Creese, and Snyder, Molecular Pharmacology 12, 800 (1976); Creese, Burt, and Snyder, Science 196, 326 (1977); and Creese, Burt and Snyder, Science.

Row | SMILES | IC50
29 | O[C@]1(c2ccc3c(c2)OCO3)CC[C@H](N2CCN(Cc3ccccc3F)CC2)CC1 [Example 23, Z-1-(1,3-Benzodioxol-5-yl)-4-[4,[(2-fluorophenyl)methyl]-1-piperazinyl]cyclohexanol] | 1540 nM

— US5478828A, “Piperazinyl-and piperidinyl-cyclohexanols” (Bristol-Myers Squibb Company, priority 1995, dated 1995)
